Results taken from ChEMBL document CHEMBL2434900, “Synthesis of novel benzo[4,5]thiazolo[1,2-a]pyrimidine-3-carboxylate derivatives and biological evaluation as potential anticancer agents” (Eur J Med Chem, 2013).

Legend:
Assay type in all cases: functional, cell-based
[1] = tested on: A549; experiment: Cytotoxicity against human A549 cells by MTT assay
[2] = tested on: MCF7; experiment: Cytotoxicity against human MCF7 cells by MTT assay
[3] = tested on: HeLa; experiment: Cytotoxicity against human HeLa cells by MTT assay
[4] = tested on: MDA-MB-231; experiment: Cytotoxicity against human MDA-MB-231 cells by MTT assay

## CC1=C(C(=O)NCCC(=O)N2CCN(c3ccc([N+](=O)[O-])cc3)CC2)C(c2ccccc2)N2C(=N1)Sc1ccccc12 (centres undefined)
[1]
  IC50: 11.2 µM
[2]
  IC50: 13.8 µM
[3]
  IC50: 25.7 µM

## CC1=C(C(=O)N2CCCCC2)C(c2ccccc2)N2C(=N1)Sc1ccccc12 (centres undefined)
[2]
  IC50: 11.7 µM
[4]
  IC50: 5.01 µM

## CC1=C(C(=O)N2CCN(C)CC2)C(c2ccccc2)N2C(=N1)Sc1ccccc12 (centres undefined)
[2]
  IC50: 0.58 µM
[4]
  IC50: 1.58 µM

## CC1=C(C(=O)N2CCOCC2)C(c2ccccc2)N2C(=N1)Sc1ccccc12 (centres undefined)
[2]
  IC50: 10.1 µM
[4]
  IC50: 11.1 µM

## CC1=C(C(=O)N2CCN(c3ccccc3)CC2)C(c2ccccc2)N2C(=N1)Sc1ccccc12 (centres undefined)
[2]
  IC50: 77.6 µM
[4]
  IC50: 31.6 µM

## CC1=C(C(=O)N2CCN(c3ccc([N+](=O)[O-])cc3)CC2)C(c2ccccc2)N2C(=N1)Sc1ccccc12 (centres undefined)
[2]
  IC50: 29 µM
[4]
  IC50: 47.2 µM

## CC1=C(C(=O)NCCC(=O)N2CCCCC2)C(c2ccccc2)N2C(=N1)Sc1ccccc12 (centres undefined)
[1]
  IC50: 18.1 µM
[2]
  IC50: 16.8 µM
[4]
  IC50: 21.7 µM
[3]
  IC50: 11.4 µM

## COc1cccc2c1C(=O)c1c(O)c3c(c(O)c1C2=O)C[C@@](O)(C(=O)CO)C[C@@H]3O[C@H]1C[C@H](N)[C@H](O)[C@H](C)O1 [DOXORUBICIN]
[2]
  IC50: 1.05 µM
[4]
  IC50: 0.501 µM
